Where two headings read alike, the source gives them in different places.
Tests used:
[1] = system: genotype A, "Long" strain RSV; assay: RSV-A assay (CPE protection in Hep-2 cells, ATPlite readout); assay type: cell-based, Human respiratory syncytial virus (HRSV); settings: MOI 0.1, CPE protection
Summary of the method: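 Protection from RSV-induced cytopathic effect measured by ATP content (ATPlite) after 5-day culture. Infection used genotype A Long virus at MOI 0.1 on 8,000 Hep-2 cells per well, with compound serially diluted 2-fold; values are EC50.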

[2] = system: HMPV clinical isolate TN/1501/A1; assay: HMPV antiviral assay Method-B (clinical isolate TN/1501/A1 in LLC-MK2 cells, ATP-Lite readout); assay type: cell-based, Human metapneumovirus (HMPV); settings: hMPV WT1501 (clinical isolate TN/1501/A1), 6 days
Summary of the method: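 EC50 derived by four-parameter logistic fit of percent cell health, measured by ATP-Lite luminescence and normalised to virus-only and uninfected-cell controls. Compounds run in duplicate from 10 μM top, 3-fold, 10 points. Infection: LLC-MK2 cells, MOI 0.014, 2 μg/mL final TPCK-trypsin, serum-free, 6 days at 37° C.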

[3] = human respiratory syncytial virus, RSV-A Long strain, read-out: Human RSV-A (“Long”) EC50
[4] = human metapneumovirus, LLC-MK2, 144 h
[5] = human respiratory syncytial virus, genotype A “Long” strain RSV, read-out: Human RSV-A (“Long”)

SMILES	EC50 [1, 3] [nM]	EC50 [2, 4] [nM]	EC50 [1, 5] [nM]	EC50 ([1]; RSV-A Long strain, read-out: Human RSV-A (“Long”) EC50) [nM]	EC50 [2] [nM]
COc1cc(C(=O)NC[C@](O)(c2cc3c(c(-c4ccc5c(c4)CCC5)n2)OC[C@]3(C)C(N)=O)C(F)(F)F)cc2cn(C3CC3)nc12 [Example 984]	> 200	> 500			
COc1cc(C(=O)NC[C@](O)(c2nc(-c3ccc(F)cc3)c3c(c2F)[C@](C)(C(N)=O)CO3)C(F)(F)F)cc2cc(Cl)c(C)nc12 [Example 854]	> 200	> 500			
COc1cc(C(=O)NC[C@](O)(c2cc3c(c(-c4ccc(F)cc4)n2)OC[C@]3(C)C(N)=O)C(F)(F)F)cc2cc(C#N)cnc12 [Example 1134]	< 200	> 500			
COc1cc(C(=O)NC[C@](O)(c2cc3c(c(-c4ccc(F)c(F)c4F)n2)OC[C@]3(C(N)=O)C(F)F)C(F)(F)F)cc2cn(C3CC3)nc12 [Example 1038]	> 200	> 500			
C[C@]1(C(N)=O)COc2c1cc([C@@](O)(CNC(=O)c1cc(OC3CC3)c3nc(Cl)ccc3c1)C(F)(F)F)nc2-c1ccc(F)cc1 [Example 1192]	< 200	> 500			
C[C@]1(C(N)=O)COc2c1cc([C@@](O)(CNC(=O)c1cc(OCC(F)F)c3nn(C4(F)CC4)cc3c1)C(F)(F)F)nc2-c1ccc(F)cc1 [Example 889]	< 200	> 500			
Cc1nc2c(OC3CC3)cc(C(=O)NC[C@](O)(c3cc4c(c(-c5csc6c(F)cccc56)n3)OC[C@]4(C)C(N)=O)C(F)(F)F)cc2cc1Cl [Example 603]		> 500	< 200		
Cc1cnc2c(OC(F)F)cc(C(=O)NC[C@](O)(c3cc4c(c(-c5ccc(F)c(Cl)c5)n3)OC[C@]4(C(N)=O)C(F)F)C(F)(F)F)cc2c1 [Example 1008]	> 200	> 500			
COc1cc(C(=O)NC[C@](O)(c2nc(-c3ccc(F)cc3)c3c(c2F)[C@](C)(C(N)=O)CO3)C(F)(F)F)cc2cn(C(F)F)nc12 [Example 852]	< 200	> 500			
COc1cc(C(=O)NCC(O)(c2cc3c(c(-c4ccc(OC(F)(F)F)c(F)c4)n2)OC[C@]3(C)C(N)=O)C(F)(F)F)cc2cn(C3CC3)nc12 (stereo partly shown) [Example 927]	< 200	> 500			
COc1cc(C(=O)NC[C@@](O)(c2cc3c(c(-c4ccc5c(c4)OC(F)(F)C(F)(F)O5)n2)OC[C@]3(C)C(N)=O)C(F)(F)F)cc2cn(C3CC3)nc12 [Example 1219]				< 200	> 500
Cc1nc2c(Cl)cc(C(=O)NC[C@](O)(c3cc4c(c(-c5ccc(F)cc5)n3)OC[C@]4(C)C(N)=O)C(F)(F)F)cc2cc1Cl [Example 883]	< 200	> 500			
COc1cc(C(=O)NC[C@](O)(c2cc3c(c(-c4ccc(F)c(Cl)c4)n2)OC[C@@]3(CF)C(N)=O)C(F)(F)F)cc2cn(C3CC3)nc12 [Example 1051]	< 200	> 500			
COc1ccc(C(=O)NC[C@](O)(c2cc3c(c(-c4ccc(F)cc4)n2)OC[C@]3(C)C(N)=O)C(F)(F)F)n2ccnc12 [Example 699]		> 500	< 200		
COc1cc(C(=O)NC[C@](O)(c2cc3c(c(-c4ccc(F)cc4)n2)OC[C@@]3(CF)C(N)=O)C2CC2)cc2cc(C3CC3)nn12 [Example 1059]	> 200	> 500			
COc1cc(C(=O)NC[C@@](O)(c2cc3c(c(-c4cc5c(cc4Cl)OC(F)(F)O5)n2)OC[C@]3(C)C(N)=O)C2CC2)cc2cn(C3CC3)nc12 [Example 1230]	> 200	> 500			
COc1cc(C(=O)NC[C@](O)(c2cc3c(c(-c4ccc(F)c(C(F)(F)F)c4)n2)OC[C@]3(C)C(N)=O)C2CC2)cc2cn(C3(F)CC3)nc12 [Example 651]		< 500	< 200		
COc1cc(C(=O)NC[C@](O)(c2cc3c(c(-c4cc(Cl)ccc4F)n2)OC[C@]3(C)C(N)=O)C2CC2)cc2cn(C(F)F)nc12 [Example 1188]	< 200	< 500			
COc1cc(C(=O)NC[C@](O)(c2cc3c(c(-c4ccc(F)cc4)n2)OC[C@@]3(C(N)=O)C(F)F)C2CC2)cc2cc(Cl)c(C)nc12 [Example 1031]	< 200	< 500			
COc1cc(C(=O)NC[C@](O)(c2cc3c(c(-c4ccc(F)cc4Cl)n2)OC[C@]3(C)C(N)=O)C2CC2)cc2cn(C3(F)CC3)nc12 [Example 652]		< 500	< 200		

Next, values leading:

EC50 [1, 3] [nM]	EC50 [2, 4] [nM]	EC50 [1, 5] [nM]	EC50 ([1]; RSV-A Long strain, read-out: Human RSV-A (“Long”) EC50) [nM]	EC50 [2] [nM]	SMILES
	< 500	< 200			COc1cc(C(=O)NC[C@](O)(c2cc3c(c(-c4ccc5c(c4)OC(F)(F)O5)n2)OC[C@]3(C)C(N)=O)C(F)(F)F)cc2cn(C(F)F)nc12 [Example 591]
	< 500	< 200			COc1cc(C(=O)NC[C@](O)(c2cc3c(c(-c4ccc(F)c(F)c4Cl)n2)OC[C@]3(C)C(N)=O)C2(F)CC2)cc2cc(Cl)c(C)nc12 [Example 747]
< 200	< 500				COc1cc(C(=O)NC[C@](O)(c2cc3c(c(-c4cc(Cl)ccc4F)n2)OC[C@]3(C)C(N)=O)C2CC2)cc2cn(C3(F)CC3)nc12 [Example 839]
	< 500	< 200			COc1cc(C(=O)NC[C@](O)(c2cc3c(c(-c4ccc(F)c(Cl)c4)n2)OC[C@]3(C)C(N)=O)C2(F)CC2)cc2cn(C3CC3)nc12 [Example 714]
	< 500	< 200			COc1cc(C(=O)NC[C@](O)(c2cc3c(c(-c4cc(Cl)ccc4F)n2)OC[C@]3(C)C(N)=O)C2(F)CC2)cc2cc(Cl)c(C)nc12 [Example 737]
< 200	< 500				COc1cc(C(=O)NC[C@](O)(c2cc3c(c(-c4ccc(F)c(C#N)c4F)n2)OC[C@]3(C)C(N)=O)C(F)(F)F)cc2cn(C3CC3)nc12 [Example 1080]
< 200	< 500				COc1cc(C(=O)NC[C@](O)(c2cc3c(c(-c4ccc(F)c(F)c4Cl)n2)OC[C@]3(C)C(N)=O)C2CC2)cc2cc(Br)c(C)nc12 [Example 1184]
	< 500	< 200			C[C@]1(C(N)=O)COc2c1cc([C@@](O)(CNC(=O)c1cc(OCC3CC3)c3nn(C4(F)CC4)cc3c1)C(F)(F)F)nc2-c1csc2c(F)cccc12 [Example 610]
< 200	< 500				COc1cc(C(=O)NC[C@](O)(c2cc3c(c(-c4ccc(F)c(Cl)c4)n2)OC[C@@]3(C(N)=O)C(F)F)C(F)(F)F)cc2cn(C3CC3)nc12 [Example 1003]
	< 500	< 200			Cc1nc2c(OC3CC3)cc(C(=O)NC[C@](O)(c3cc4c(c(-c5ccc(F)cc5)n3)OC[C@]4(C)C(N)=O)C3(F)CC3)cc2cc1Cl [Example 739]
	< 500	< 200			COc1cc(C(=O)NC[C@](O)(c2cc3c(c(-c4ccc5c(c4)OC(F)(F)O5)n2)OC[C@]3(C)C(N)=O)C2(F)CC2)cc2cn(C3(F)CC3)nc12 [Example 725]
	< 500	< 200			COc1cc(C(=O)NC[C@](O)(c2cc3c(c(-c4ccc(F)cc4Cl)n2)OC[C@]3(C)C(N)=O)C2(F)CC2)cc2cc(Cl)c(C)nc12 [Example 734]
< 200	< 500				COc1cc(C(=O)NC[C@](O)(c2cc3c(c(-c4ccc(F)c(F)c4)n2)OC[C@]3(C)C(N)=O)C(F)(F)F)cc2cn(C3CC3)nc12 [Example 985]
	< 500	< 200			COc1cc(C(=O)NC[C@](O)(c2cc3c(c(-c4ccc(F)c(Cl)c4)n2)OC[C@]3(C)C(N)=O)C2CC2)cc2cc(Cl)c(C)nc12 [Example 633]
	< 500	< 200			C[C@]1(C(N)=O)COc2c1cc([C@@](O)(CNC(=O)c1cc(Cl)c3nn(C4CC4)cc3c1)C(F)(F)F)nc2-c1cc(Cl)c(F)cc1F [Example 619]
< 200	< 500				COc1cc(C(=O)NC[C@](O)(c2cc3c(c(-c4ccc(OCC(F)F)cc4)n2)OC[C@]3(C)C(N)=O)C(F)(F)F)cc2cn(C3CC3)nc12 [Example 979]
< 200	< 500				COc1cc(C(=O)NC[C@](O)(c2cc3c(c(-c4cc(F)c(F)cc4F)n2)OC[C@]3(C)C(N)=O)C2CC2)cc2cc(Br)cnc12 [Example 1149]
	< 500	< 200			C[C@]1(C(N)=O)COc2c1cc([C@@](O)(CNC(=O)c1cc(Cl)c3nn(C4CC4)cc3c1)C(F)(F)F)nc2-c1ccc(F)c(F)c1Cl [Example 780]
	< 500	< 200			Cc1cnc2c(Cl)cc(C(=O)NC[C@](O)(c3cc4c(c(-c5cc(F)c(F)c(Cl)c5)n3)OC[C@]4(C)C(N)=O)C3CC3)cc2c1 [Example 792]
	< 500	< 200			Cc1cnc2c(OCC(F)F)cc(C(=O)NC[C@](O)(c3cc4c(c(-c5ccc(F)c(Cl)c5)n3)OC[C@]4(C)C(N)=O)C3CC3)cc2c1 [Example 499]
	< 500	< 200			COc1cc(C(=O)NC[C@](O)(c2cc3c(c(-c4cc(F)c(F)cc4Cl)n2)OC[C@]3(C)C(N)=O)C2CC2)cc2cc(Br)cnc12 [Example 660]
	< 500	< 200			COc1cc(C(=O)NC[C@](O)(c2cc3c(c(-c4ccc5c(c4)OC(F)(F)O5)n2)OC[C@]3(C)C(N)=O)C2CC2)cc2cn(C3CC3)nc12 [Example 816]
< 200	< 500				C[C@]1(C(N)=O)COc2c1cc([C@@](O)(CNC(=O)c1cc(OCC3CC3)c3nn(C4(F)CC4)cc3c1)C(F)(F)F)nc2-c1ccc(F)cc1 [Example 877]
< 200	< 500				COc1cc(C(=O)NC[C@](O)(c2cc3c(c(-c4ccc(F)cc4Cl)n2)OC[C@]3(C)C(N)=O)C2CC2)cc2cn(C3CC3)nc12 [Example 872]

Reference: patent publication US12612412B2, “Antiviral heterocyclic compounds” (Enanta Pharmaceuticals, Inc., priority 2021, dated 2026)
